Assay results reported in EP0193257A1, “Control of micro-organisms in water-containing compositions” (NIPA LABORATORIES, LTD., priority 1985, dated 1986).

Experiments:
Type in all cases: cell-based
Pseudomonas aeruginosa [1] = assay: Bactericidal effect in 27% sodium lauryl ether sulphate (challenge test)
Method: (§1) Sodium lauryl ether sulphate (SLES) is a commonly used anionic detergent, a major active component of shampoos, foam baths and general purpose cleaners. The bactericidal activity of some compounds covered by the general formula given above was evaluated at final levels of 0.10% (w/w) and 0. 15% (w/w) in a 27% active solution of SLES (confirmed as containing no other preservatives). The activity of these compounds was evaluated in comparison with 0.30% methyl-4-hydroxybenzoate and an unpreserved control sample.
(§2) The test organisms were three species of resistant Gram negative bacteria which had previously been isolated from contaminated detergent products. 20g portions of test solutions were inoculated with 0.1 ml pure culture of the test bacteria and the time taken to achieve a total lethal effect against each species was determined by sub-culture at regular intervals into sterile dilution media (containing preservative inact ivators) and then into sterile Nutrient Broth, which was incubated for 4 days at 32°C to determine the presence or absence of surviving bacteria.

Serratia marcescens [2] = assay: as above
Method: as §1, §2

Klebsiella oxytoca [3] = assay: as above
Method: as §1, §2

Pseudomonas aeruginosa [4] = assay: Challenge test in Polysorbate 80 solutions
Method: (§3) Many antimicrobial preservatives are inactivated by polyalkoxylated nonionic emulsifiers which are widely used in emulsification of cosmetic, pharmaceutical and industrial emulsions. […] Normal use levels of Polysorbate 80 are 1-5%.
(§4) 3,5-Dibromo-4-hydroxybenzaldehyde was evaluated at 0.05%, 0.10% and 0.15% in 5% and 10% Polysorbate 80 solutions by a challenge test of the type described in Example 2.

Serratia marcescens [5] = assay: Challenge test in Polysorbate 80 solutions
Method: as §3, §4

Escherichia coli [6] = assay: Challenge test in Polysorbate 80 solutions
Method: as §3, §4

Pseudomonas putida [7] = assay: Challenge test in Polysorbate 80 solutions
Method: as §3, §4

Klebsiella oxytoca [8] = assay: Challenge test in Polysorbate 80 solutions
Method: as §3, §4

Pseudomonas aeruginosa [9] = assay: Microbial challenge test in cosmetic cream
Method: (§5) Emulsions are susceptible to contamination and spoilage by-a wide range of micro-organisms. 3.5-Dibromo-4-hydroxybenzaldehyde (DBHB), as a non-limiting illustration of the invention, was evaluated in a typical cosmetic cream for microbiocidal efficacy. The cosmetic cream had the following formulation: […]
(§6) This cream was prepared by heating the oil and water phases to 70°C, mixing and stirring until cool. The DBHB was incorporated into the cream at final levels of 0.05%, 0.10% and 0.15% by dissolving into the emulsion components at the heating stage. A microbial challenge test was performed to determine the micro-biocidal activity of the test product. The following test organisms were inoculated in pure culture into portions of sterile cream samples and the time taken to achieve a total lethal effect was determined by regular sub-culture into recovery media (with preservative inactivators) which were incubated and observed for growth of survivors.

Staphylococcus aureus = assay: Microbial challenge test in cosmetic cream
Method: as §5, §6

Serratia marcescens [10] = assay: Microbial challenge test in cosmetic cream
Method: as §5, §6

Escherichia coli [11] = assay: Microbial challenge test in cosmetic cream
Method: as §5, §6

Pencicillium expansum = assay: Microbial challenge test in cosmetic cream
Method: as §5, §6

Pseudomonas putida [12] = assay: Microbial challenge test in cosmetic cream
Method: as §5, §6

Candida albicans = assay: Microbial challenge test in cosmetic cream
Method: as §5, §6

[13] = tested on: mixed culture of 7 strains of Gram negative bacteria; assay: Survivor plate count in shampoo formulation after challenge; conditions: shampoo with 0.05% citric acid alone (Control 1)
Method: A shampoo formulation was prepared to the following formula: […]
Various additions were made to portions of this shampoo in sterile bottles under aseptic conditions, as follows: • 1. 0.20% of 30% DCHB in propylene glycol (0.06% active DCHB) • 2. 0.20% of 30% DCHB in propylene glycol + 0.05% citric acid • 3. 0.05% citric acid (control 1) • 4. No addition (control 2)
Each of these systems was inoculated with a mixed culture of 7 strains of Gram negative bacteria, at an initial inocullum level of 9.0x10^7 colony forming units per g. At 30 mins, 1 hour, 2 hours, 6 hours, 24 hours and 7 days after inoculation the total number of survivors in each sample portion were determined by serial dilution and plate counting; with the following results: […]

[14] = 0.05%, Polysorbate 80 level 10%
[15] = 0.10%, Polysorbate 80 level 10%
[16] = 0.15%, Polysorbate 80 level 10%

Cc1cc(C=O)cc(C)c1O [3,5-Dimethyl-4-hydroxybenzaldehyde, 3,5,-Dimethyl-4-hydroxybenzaldehyde]
Time to achieve total lethal effect against: P aeruginosa (Pseudomonas aeruginosa [1]; 0.10% in 27% SLES): 1 hour hours | Time to achieve total lethal effect against: P aeruginosa (Pseudomonas aeruginosa [1]; 0.15% in 27% SLES): <1 h | Time to achieve total lethal effect against: S marcescens (Serratia marcescens [2]; 0.10% in 27% SLES): 1 days | Time to achieve total lethal effect against: S marcescens (Serratia marcescens [2]; 0.15% in 27% SLES): 0.12 days | Time to achieve total lethal effect against: K oxytoca (Klebsiella oxytoca [3]; 0.10% in 27% SLES): 3 h | Time to achieve total lethal effect against: K oxytoca (Klebsiella oxytoca [3]; 0.15% in 27% SLES): <1 h

O=Cc1cc(Br)c(O)c(Br)c1 [DBHB, 3,5-Dibromo-4-hydroxybenzaldehyde]
Time taken to achieve total lethal effect against: P aeruginosa (Pseudomonas aeruginosa [4]; 0.05%, Polysorbate 80 level 5%): 3 h | Time taken to achieve total lethal effect against: P aeruginosa (Pseudomonas aeruginosa [4]; [14]): 24 h | Time taken to achieve total lethal effect against: P aeruginosa (Pseudomonas aeruginosa [4]; 0.10%, Polysorbate 80 level 5%): <1 h | Time taken to achieve total lethal effect against: P aeruginosa (Pseudomonas aeruginosa [4]; [15]): 3 h | Time taken to achieve total lethal effect against: P aeruginosa (Pseudomonas aeruginosa [4]; 0.15%, Polysorbate 80 level 5%): <1 h | Time taken to achieve total lethal effect against: P aeruginosa (Pseudomonas aeruginosa [4]; [16]): <1 h | Time taken to achieve total lethal effect against: S marcescens (Serratia marcescens [5]; 0.05%, Polysorbate 80 level 5%): 24 h | Time taken to achieve total lethal effect against: S marcescens (Serratia marcescens [5]; [14]): 24 h | Time taken to achieve total lethal effect against: S marcescens (Serratia marcescens [5]; 0.10%, Polysorbate 80 level 5%): 1 h | Time taken to achieve total lethal effect against: S marcescens (Serratia marcescens [5]; [15]): 3 h | Time taken to achieve total lethal effect against: S marcescens (Serratia marcescens [5]; 0.15%, Polysorbate 80 level 5%): 1 h | Time taken to achieve total lethal effect against: S marcescens (Serratia marcescens [5]; [16]): 1 h | Time taken to achieve total lethal effect against: E coli (Escherichia coli [6]; 0.05%, Polysorbate 80 level 5%): 6 h | Time taken to achieve total lethal effect against: E coli (Escherichia coli [6]; [14]): 3 h | Time taken to achieve total lethal effect against: E coli (Escherichia coli [6]; 0.10%, Polysorbate 80 level 5%): <1 h | Time taken to achieve total lethal effect against: E coli (Escherichia coli [6]; [15]): 1 h | Time taken to achieve total lethal effect against: E coli (Escherichia coli [6]; 0.15%, Polysorbate 80 level 5%): <1 h | Time taken to achieve total lethal effect against: E coli (Escherichia coli [6]; [16]): <1 h | Time taken to achieve total lethal effect against: P putida (Pseudomonas putida [7]; 0.05%, Polysorbate 80 level 5%): 3 h | Time taken to achieve total lethal effect against: P putida (Pseudomonas putida [7]; [14]): 1 h | Time taken to achieve total lethal effect against: P putida (Pseudomonas putida [7]; 0.10%, Polysorbate 80 level 5%): <1 h | Time taken to achieve total lethal effect against: P putida (Pseudomonas putida [7]; [15]): 1 h | Time taken to achieve total lethal effect against: P putida (Pseudomonas putida [7]; 0.15%, Polysorbate 80 level 5%): <1 h | Time taken to achieve total lethal effect against: P putida (Pseudomonas putida [7]; [16]): <1 h | Time taken to achieve total lethal effect against: K oxytoca (Klebsiella oxytoca [8]; 0.05%, Polysorbate 80 level 5%): 6 h | Time taken to achieve total lethal effect against: K oxytoca (Klebsiella oxytoca [8]; [14]): 3 h | Time taken to achieve total lethal effect against: K oxytoca (Klebsiella oxytoca [8]; 0.10%, Polysorbate 80 level 5%): 1 h | Time taken to achieve total lethal effect against: K oxytoca (Klebsiella oxytoca [8]; [15]): 1 h | Time taken to achieve total lethal effect against: K oxytoca (Klebsiella oxytoca [8]; 0.15%, Polysorbate 80 level 5%): <1 h | Time taken to achieve total lethal effect against: K oxytoca (Klebsiella oxytoca [8]; [16]): <1 h | Time to achieve total lethal effect against: P aeruginosa (Pseudomonas aeruginosa [1]; 0.10% in 27% SLES): 1 hour hours | Time to achieve total lethal effect against: P aeruginosa (Pseudomonas aeruginosa [1]; 0.15% in 27% SLES): <1 h | Time to achieve total lethal effect against: S marcescens (Serratia marcescens [2]; 0.10% in 27% SLES): 0.12 days | Time to achieve total lethal effect against: S marcescens (Serratia marcescens [2]; 0.15% in 27% SLES): <1 hour hours | Time to achieve total lethal effect against: K oxytoca (Klebsiella oxytoca [3]; 0.10% in 27% SLES): 3 h | Time to achieve total lethal effect against: K oxytoca (Klebsiella oxytoca [3]; 0.15% in 27% SLES): <1 h | Time taken to achieve total lethal effect against: P aeruginosa (Pseudomonas aeruginosa [9]; 0.05% in cosmetic cream): 3 h | Time taken to achieve total lethal effect against: P aeruginosa (Pseudomonas aeruginosa [9]; 0.10% in cosmetic cream): 3 h | Time taken to achieve total lethal effect against: P aeruginosa (Pseudomonas aeruginosa [9]; 0.15% in cosmetic cream): <1 h | Time taken to achieve total lethal effect against: S aureus (Staphylococcus aureus; 0.05% in cosmetic cream): 1 h | Time taken to achieve total lethal effect against: S aureus (Staphylococcus aureus; 0.10% in cosmetic cream): <1 h | Time taken to achieve total lethal effect against: S aureus (Staphylococcus aureus; 0.15% in cosmetic cream): <1 h | Time taken to achieve total lethal effect against: S marcescens (Serratia marcescens [10]; 0.05% in cosmetic cream): 3 h | Time taken to achieve total lethal effect against: S marcescens (Serratia marcescens [10]; 0.10% in cosmetic cream): 3 h | Time taken to achieve total lethal effect against: S marcescens (Serratia marcescens [10]; 0.15% in cosmetic cream): 1 h | Time taken to achieve total lethal effect against: E coli (Escherichia coli [11]; 0.05% in cosmetic cream): 3 h | Time taken to achieve total lethal effect against: E coli (Escherichia coli [11]; 0.10% in cosmetic cream): 3 h | Time taken to achieve total lethal effect against: E coli (Escherichia coli [11]; 0.15% in cosmetic cream): <1 h | Time taken to achieve total lethal effect against: Pen expansum (Pencicillium expansum; 0.05% in cosmetic cream): 4 days | Time taken to achieve total lethal effect against: Pen expansum (Pencicillium expansum; 0.10% in cosmetic cream): 2 days | Time taken to achieve total lethal effect against: Pen expansum (Pencicillium expansum; 0.15% in cosmetic cream): 1 days | Time taken to achieve total lethal effect against: P putida (Pseudomonas putida [12]; 0.05% in cosmetic cream): 3 h | Time taken to achieve total lethal effect against: P putida (Pseudomonas putida [12]; 0.10% in cosmetic cream): <1 h | Time taken to achieve total lethal effect against: P putida (Pseudomonas putida [12]; 0.15% in cosmetic cream): <1 h | Time taken to achieve total lethal effect against: C albicans (Candida albicans; 0.05% in cosmetic cream): 3 h | Time taken to achieve total lethal effect against: C albicans (Candida albicans; 0.10% in cosmetic cream): <1 h | Time taken to achieve total lethal effect against: C albicans (Candida albicans; 0.15% in cosmetic cream): <1 h

O=C(O)CC(O)(CC(=O)O)C(=O)O [citric acid, reference compound]
Mixed culture - colony forming units/g after: 30 mins [13]: 9.0x10^7 colony forming units/g | Mixed culture - colony forming units/g after: 1 hour [13]: 3.5x10^7 colony forming units/g | Mixed culture - colony forming units/g after: 2 hours [13]: 6.5x10^7 colony forming units/g | Mixed culture - colony forming units/g after: 6 hours [13]: >1x10^8 colony forming units/g | Mixed culture - colony forming units/g after: 24 hours [13]: >1x10^8 colony forming units/g | Mixed culture - colony forming units/g after: 7 days [13]: >1x10^8 colony forming units/g

COC(=O)c1ccc(O)cc1 [Methyl-4-hydroxybenzoate, reference compound]
Time to achieve total lethal effect against: P aeruginosa (Pseudomonas aeruginosa [1]; 0.3% in 27% SLES): 336 h | Time to achieve total lethal effect against: S marcescens (Serratia marcescens [2]; 0.3% in 27% SLES): >28 days | Time to achieve total lethal effect against: K oxytoca (Klebsiella oxytoca [3]; 0.3% in 27% SLES): 504 h

O=Cc1ccc(O)c(Cl)c1 [3-Chloro-4-hydroxybenzaldehyde]
Time to achieve total lethal effect against: P aeruginosa (Pseudomonas aeruginosa [1]; 0.10% in 27% SLES): 3 h | Time to achieve total lethal effect against: P aeruginosa (Pseudomonas aeruginosa [1]; 0.15% in 27% SLES): 1 h | Time to achieve total lethal effect against: S marcescens (Serratia marcescens [2]; 0.10% in 27% SLES): 1 days | Time to achieve total lethal effect against: S marcescens (Serratia marcescens [2]; 0.15% in 27% SLES): 0.25 days | Time to achieve total lethal effect against: K oxytoca (Klebsiella oxytoca [3]; 0.10% in 27% SLES): 6 h | Time to achieve total lethal effect against: K oxytoca (Klebsiella oxytoca [3]; 0.15% in 27% SLES): 1 h
